Values of other authors, collected in patent publication US20260146034A1, “1H-CYCLOPENTA[B]BENZOFURAN DERIVATIVES FOR THE PREVENTION AND TREATMENT OF VIRUS DISEASES” (priority 2022, published 2026).

Experiments:
[1] = tested on: SARS-COV-2; conditions: eFFECTOR's Therapeutic, Apr. 30, 2020
[2] = tested on: coronavirus; conditions: J. Virology, 2011, 6381
[3] = tested on: RNA helicase enzyme elF4A; conditions: previous studies
[4] = tested on: corona viruses, SARS and MERS virus

## COc1cc2c(c(OC)n1)[C@]1(O)[C@H](O)[C@H](CN(C)C)[C@@H](c3ccccc3)[C@]1(c1ccc(C#N)cc1)O2 [Zotatifin]
[1]
  anti viral activity against SARS-COV-2: shows anti viral activity

## 4E2RCat
[2]
  blocking coronavirus replication: capable of blocking coronavirus replication

## Silvesterol
[3]
  inhibition of the RNA helicase enzyme elF4A: potent and selective inhibitor
[4]
  antiviral activity against corona viruses, SARS and MERS virus: broadspectrum antiviral activity
